According to PubChem BioAssay (NCI):
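Grown in 96-well plates, cells were treated for 48 hours with each compound at five concentrations. Insufficient inhibition: endpoint recorded as highest concentration tested. The concentration for 50% growth inhibition is given as GI50. Definition used: TGI = concentration required for complete inhibition of growth.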

Key:
Assay in all cases: growth of human tumour cells (NCI), 48 h
BT-549 breast = test system: BT-549 breast
COLO 205 colon = test system: COLO 205 colon
HCC-2998 colon = test system: HCC-2998 colon
MDA-MB-231 breast = test system: MDA-MB-231 breast
NCI-H460 lung = test system: NCI-H460 lung
OVCAR-5 ovarian = test system: OVCAR-5 ovarian
SNB-19 CNS = test system: SNB-19 CNS
UACC-62 melanoma = test system: UACC-62 melanoma
KM20L2 colon = test system: KM20L2 colon
SNB-78 CNS = test system: SNB-78 CNS
XF 498 CNS = test system: XF 498 CNS

| Structure (SMILES) | TGI (BT-549 breast) | TGI (COLO 205 colon) | TGI (HCC-2998 colon) | TGI (MDA-MB-231 breast) | TGI (NCI-H460 lung) | TGI (OVCAR-5 ovarian) | TGI (SNB-19 CNS) | TGI (UACC-62 melanoma) | GI50 (UACC-62 melanoma) | TGI (KM20L2 colon) | TGI (SNB-78 CNS) | TGI (XF 498 CNS) |
| --- | --- | --- | --- | --- | --- | --- | --- | --- | --- | --- | --- | --- |
| C=CC(=O)N1C/C(=C\c2ccc(OC)cc2)C(=O)/C(=C/c2ccc(OC)cc2)C1 | 6.24 µM | 9.99 µM | 2.87 µM | 7.98 µM | 6.82 µM | 16.2 µM | 28.3 µM | 4.37 µM |  |  |  |  |
| CCOC(=O)Cc1[nH]c(C(=O)c2ccccc2)cc1C(=O)c1ccccc1 | 38.7 µM | 48.7 µM | > 100 µM | > 10 µM | > 100 µM | > 10 µM | > 100 µM | > 100 µM |  |  |  |  |
| N#CCCN(CCCCN(CCC#N)C(=O)Nc1ccccc1)C(=O)Nc1ccccc1 | > 100 µM | > 100 µM | > 100 µM | > 100 µM | > 100 µM | > 100 µM | > 100 µM | > 100 µM |  |  |  |  |
| NC1(c2cc3ccccc3s2)CCCCCC1 | 32.6 µM | 26.5 µM | 4.49 µM | 29.1 µM | 28.6 µM | 28.7 µM | 34.8 µM | 31.9 µM |  |  |  |  |
| COc1cc2c3c(n(C)c(=O)c2cc1OC)-c1cc2c(cc1/C3=C\CCCCl)OCO2 | > 100 µM | > 100 µM | 73.2 µM | > 100 µM | > 100 µM | > 100 µM | > 100 µM | > 100 µM | 33.3 µM |  |  |  |
| CCOC(=O)c1nc2ccccc2nc1Nc1ccc(C(=O)OC)s1 | > 100 µM | > 100 µM | > 100 µM | > 100 µM | > 100 µM | > 100 µM | > 100 µM | > 100 µM |  |  |  |  |
| N#CC1=C(O)NC(O)=C(C#N)C1c1c(Cl)cccc1Cl |  | > 100 µM | 60 µM |  | 61.5 µM | 98.5 µM | > 100 µM | > 100 µM |  | > 100 µM | > 100 µM | > 100 µM |
| O=S(=O)(O)c1cc(S(=O)(=O)O)c2cc(N=Nc3ccc(N=Nc4ccc(/C=C/c5ccc(N=[N+]([O-])c6ccc(/C=C/c7ccc(N=Nc8ccc(N=Nc9ccc%10cc(S(=O)(=O)O)cc(S(=O)(=O)O)c%10c9)cc8)cc7S(=O)(=O)O)c(S(=O)(=O)O)c6)cc5S(=O)(=O)O)c(S(=O)(=O)O)c4)cc3)ccc2c1 |  | > 100 µM | > 100 µM |  | > 100 µM | > 100 µM | > 100 µM | 65.4 µM |  | > 100 µM | > 100 µM | > 100 µM |
| C=C1c2c(n(S(=O)(=O)c3ccccc3)c3ccccc23)[C@@]2(C(=O)OC)CC3C=CC2N1C3 | > 100 µM | > 100 µM | > 100 µM | > 100 µM | > 100 µM | > 100 µM | > 100 µM | > 100 µM |  |  |  |  |
| Clc1nc2nc(N3CCNCC3)nc(N3CCCC3)c2[nH]1 | 89.8 µM | 31 µM | 29.5 µM | 31.8 µM | 32.7 µM | 44.3 µM | 31.8 µM | 31.8 µM |  |  |  |  |
| N=c1ncn(C/C=C/c2ccccc2)c2nc[nH]c12 | > 100 µM | > 100 µM | > 100 µM | > 100 µM | > 100 µM | > 100 µM | > 100 µM | > 100 µM |  |  |  |  |
| CC1(C)CC(=O)c2c(N)n[nH]c2C1 | > 100 µM | > 100 µM | > 100 µM | > 100 µM | > 100 µM | > 100 µM | > 100 µM | > 100 µM |  |  |  |  |
| COC1(OC)CC(CO)(COc2cc(Cl)nc(N)n2)C1 | > 100 µM | > 100 µM | > 100 µM | > 100 µM | > 100 µM | > 100 µM | > 100 µM | > 100 µM |  |  |  |  |
| C=C(C)C1(Sc2ccc(OC)cc2)CC1 | 58 µM | 60.1 µM | 34.2 µM | > 100 µM | > 100 µM | > 100 µM | > 100 µM | > 100 µM |  |  |  |  |
| Cc1cnc2c(c1)C(=O)N(c1ccc(Oc3ccccc3)cc1)S2(=O)=O | > 100 µM | > 100 µM | > 100 µM | > 100 µM | > 100 µM | > 100 µM | > 100 µM | > 100 µM |  |  |  |  |
| O=C(O)c1cc(NCc2cc(O)ccc2O)ccc1O | > 100 µM | > 100 µM | > 100 µM | > 100 µM | > 100 µM | > 100 µM | > 100 µM | > 100 µM |  |  |  |  |
| CC(C)(C)OC(=O)N1C(=O)C2CCCC21 (stereo not drawn) | > 100 µM | > 100 µM | > 100 µM | > 100 µM | > 100 µM | > 100 µM | > 100 µM | > 100 µM |  |  |  |  |
| N=C1C=CC(=C(c2ccc(N)cc2)c2ccc(N)cc2)C=C1 | 7.97 µM | 5.83 µM | 18.6 µM | 32.5 µM | 36.9 µM | 50.3 µM | 18.6 µM | 15.3 µM |  | 21.5 µM | 18.9 µM | 7.45 µM |
| CCOc1ccc2c(c1)C(/C(C(Cl)=C(Cl)Cl)=[N+](/[O-])OC(=O)c1ccccc1)=N2 | 97.8 µM | > 100 µM | > 100 µM | > 100 µM | > 100 µM | > 100 µM | > 100 µM | > 100 µM |  |  |  |  |
